# Reference: patent US20050107430A1, “Antimicrobial and antiviral compounds” (priority 2003, published 2005)
# Like-named read-outs stand apart in the source and are kept apart here.
# Tested on: Mycobacterium tuberculosis
# Conditions: resistant strains
smiles,measurement,setting,value
"c1ccc2c(c1)ccc1c3ccc(NCCCCN4CCCCC4)cc3ccc21 [Tx-5, N-(2′-chrysenyl)-4-(1′-piperidinyl)-butane-1,4-diamine]","MIC, M. tuberculosis resisant. strains",2 wk,2 µg/mL
same,"MIC, M. tuberculosis resisant. strains",4 wk,4 µg/mL
